Laboratory results reported in patent publication US20230293407A1, “Compositions Comprising (Bio)-Alkanediols with Antimicrobials for Product Protection” (Symrise AG, priority 2020, published 2023).

Key:
Test in all cases: preservation efficacy test (PET), European Pharmacopoeia 5.1.3
Format in all cases: cell-based
[1] = test system: Escherichia coli; details: for number of microorganisms, 2 days / number of microorganisms, 7 days / number of microorganisms, 14 days / number of microorganisms, 28 days: PET, Escherichia coli (EC); for count at 2 days / count at 7 days / count at 14 days / count at 28 days: EC, use concentration in label
[2] = test system: Pseudomonas aeruginosa; details: for number of microorganisms, 2 days / number of microorganisms, 7 days / number of microorganisms, 14 days / number of microorganisms, 28 days: PET, Pseudomonas aeruginosa (PA); for count at 2 days / count at 7 days / count at 14 days / count at 28 days: PA, use concentration in label
[3] = test system: Candida albicans; details: for CA germ count, 7 days / CA germ count, 14 days / CA germ count, 28 days: substance at given % in test formulation; for count at 2 days / count at 7 days / count at 14 days / count at 28 days: CA, use concentration in label
[4] = test system: Staphylococcus aureus
[5] = test system: Aspergillus brasiliensis; details: for count at 2 days / count at 7 days / count at 14 days / count at 28 days: AB, use concentration in label
[6] = PET, Candida albicans (CA), 7 days after inoculation
[7] = PET, Candida albicans (CA), 14 days after inoculation
[8] = PET, Candida albicans (CA), 28 days after inoculation
[9] = PET, Staphylococcus aureus (SA), 7 days after inoculation
[10] = PET, Staphylococcus aureus (SA), 14 days after inoculation
[11] = PET, Staphylococcus aureus (SA), 28 days after inoculation
[12] = 2 days after inoculation, o/w emulsion (Table 53)
[13] = 7 days after inoculation, o/w emulsion (Table 53)
[14] = 7 days after inoculation, substance at given % in test formulation, listed as 0.1% 4-Hydroxyacetophenone
[15] = 14 days after inoculation, o/w emulsion (Table 53)
[16] = 28 days after inoculation, o/w emulsion (Table 53)
[17] = 7 days after inoculation, substance at given % in test formulation
[18] = 14 days after inoculation, substance at given % in test formulation
[19] = 28 days after inoculation, substance at given % in test formulation
[20] = 2 days after inoculation, substance at given % in test formulation
[21] = SA, 7 days after inoculation, use concentration in label
[22] = SA, 14 days after inoculation, use concentration in label
[23] = SA, 28 days after inoculation, use concentration in label

COc1ccc(C(=O)O)cc1 [anisic acid, reference compound]
number of microorganisms, 2 days ([1]; 2 days after inoculation): 1
number of microorganisms, 7 days ([1]; 7 days after inoculation): 1
number of microorganisms, 14 days ([1]; 14 days after inoculation): 1
number of microorganisms, 28 days ([1]; 28 days after inoculation): 1
number of microorganisms, 2 days ([2]; 2 days after inoculation): 1
number of microorganisms, 7 days ([2]; 7 days after inoculation): 1
number of microorganisms, 14 days ([2]; 14 days after inoculation): 1
number of microorganisms, 28 days ([2]; 28 days after inoculation): 1
number of microorganisms, 2 days ([3]; PET, Candida albicans (CA), 2 days after inoculation): 7.000
number of microorganisms, 7 days [3, 6]: 9.000
number of microorganisms, 14 days [3, 7]: 1
number of microorganisms, 28 days [3, 8]: 1
number of microorganisms, 2 days ([4]; PET, Staphylococcus aureus (SA), 2 days after inoculation): 1
number of microorganisms, 7 days [4, 9]: 1
number of microorganisms, 14 days [4, 10]: 1
number of microorganisms, 28 days [4, 11]: 1
number of microorganisms, 2 days ([5]; PET, Aspergillus brasiliensis (AB), 2 days after inoculation): 650.000
number of microorganisms, 7 days ([5]; PET, Aspergillus brasiliensis (AB), 7 days after inoculation): 360.000
number of microorganisms, 14 days ([5]; PET, Aspergillus brasiliensis (AB), 14 days after inoculation): 1
number of microorganisms, 28 days ([5]; PET, Aspergillus brasiliensis (AB), 28 days after inoculation): 1

CC(=O)c1ccc(O)cc1 [4-Hydroxyacetophenone, reference compound]
germ count EC, 2 days [1, 12]: 110.000
EC germ count, 2 days ([1]; 2 days after inoculation, substance at given % in test formulation, listed as 0.1% 4-Hydroxyacetophenone): 110.000
germ count EC, 7 days [1, 13]: 290
EC germ count, 7 days [1, 14]: 36
germ count EC, 14 days [1, 15]: 27
EC germ count, 14 days ([1]; 14 days after inoculation, substance at given % in test formulation, listed as 0.1% 4-Hydroxyacetophenone): 1
germ count EC, 28 days [1, 16]: 1
number of microorganisms, 2 days ([1]; 2 days after inoculation): 110.000
number of microorganisms, 7 days ([1]; 7 days after inoculation): 290
number of microorganisms, 14 days ([1]; 14 days after inoculation): 27
number of microorganisms, 28 days ([1]; 28 days after inoculation): 1
germ count PA, 2 days [2, 12]: 1
germ count PA, 7 days [2, 13]: 1
germ count PA, 14 days [2, 15]: 1
germ count PA, 28 days [2, 16]: 1
number of microorganisms, 2 days ([2]; 2 days after inoculation): 1
number of microorganisms, 7 days ([2]; 7 days after inoculation): 1
number of microorganisms, 14 days ([2]; 14 days after inoculation): 1
number of microorganisms, 28 days ([2]; 28 days after inoculation): 1
germ count CA, 7 days [3, 13]: 170.000
CA germ count, 7 days ([3]; 7 days after inoculation, listed as 0.1% 4-Hydroxyacetophenone): 310.000
germ count CA, 14 days [3, 15]: 130.000
CA germ count, 14 days ([3]; 14 days after inoculation, listed as 0.1% 4-Hydroxyacetophenone): 190.000
germ count CA, 28 days [3, 16]: 55.000
CA germ count, 28 days ([3]; 28 days after inoculation, listed as 0.1% 4-Hydroxyacetophenone): 100.000
number of microorganisms, 7 days [3, 6]: 170.000
number of microorganisms, 14 days [3, 7]: 130.000
number of microorganisms, 28 days [3, 8]: 55.000
germ count SA, 7 days [4, 13]: 24.000
SA germ count, 7 days [4, 14]: 78.000
germ count SA, 14 days [4, 15]: 1
germ count SA, 28 days [4, 16]: 1
number of microorganisms, 7 days [4, 9]: 24.000
number of microorganisms, 14 days [4, 10]: 1
number of microorganisms, 28 days [4, 11]: 1
AB germ count, 28 days ([5]; 28 days after inoculation, substance at given % in test formulation, listed as 0.1% 4-Hydroxyacetophenone): 910.000

CC(=O)c1ccc(O)cc1 [0.1% 4-Hydroxyacetophenone (SymSave H)]
EC germ count, 7 days [1, 17]: 87.000
EC germ count, 14 days [1, 18]: 2.400
EC germ count, 28 days [1, 19]: 1
PA germ count, 2 days [2, 20]: 1
PA germ count, 7 days [2, 17]: 1
PA germ count, 14 days [2, 18]: 1
PA germ count, 28 days [2, 19]: 1
CA germ count, 7 days ([3]; 7 days after inoculation): 81.000
CA germ count, 14 days ([3]; 14 days after inoculation): 120
CA germ count, 28 days ([3]; 28 days after inoculation): 1
SA germ count, 2 days [4, 20]: 210.000
SA germ count, 7 days [4, 17]: 1
SA germ count, 14 days [4, 18]: 1
SA germ count, 28 days [4, 19]: 1
AB germ count, 7 days [5, 17]: 680.000
AB germ count, 14 days [5, 18]: 58.000
AB germ count, 28 days [5, 19]: 18.000

Cc1ccc(C(C)C)c(O)c1 [0.1% Thymol]
count at 2 days ([1]; 2 days after inoculation): 720.000
count at 7 days ([1]; 7 days after inoculation): 200.000
count at 14 days ([1]; 14 days after inoculation): 200
count at 28 days ([1]; 28 days after inoculation): 27
count at 2 days ([2]; 2 days after inoculation): 1
count at 7 days ([2]; 7 days after inoculation): 1
count at 14 days ([2]; 14 days after inoculation): 1
count at 28 days ([2]; 28 days after inoculation): 1
count at 2 days ([3]; 2 days after inoculation): 69.000
count at 7 days ([3]; 7 days after inoculation): 640.000
count at 14 days ([3]; 14 days after inoculation): 180
count at 28 days ([3]; 28 days after inoculation): 1.400
count at 7 days [4, 21]: 23.000
count at 14 days [4, 22]: 120
count at 28 days [4, 23]: 1
count at 2 days ([5]; 2 days after inoculation): 580.000
count at 7 days ([5]; 7 days after inoculation): 520.000
count at 14 days ([5]; 14 days after inoculation): 290.000
count at 28 days ([5]; 28 days after inoculation): 650.000

CC(=O)CCC(=O)O [0.4% Levulinic Acid]
count at 2 days ([1]; 2 days after inoculation): 310
count at 7 days ([1]; 7 days after inoculation): 1
count at 14 days ([1]; 14 days after inoculation): 1
count at 28 days ([1]; 28 days after inoculation): 1
count at 2 days ([2]; 2 days after inoculation): 1
count at 7 days ([2]; 7 days after inoculation): 1
count at 14 days ([2]; 14 days after inoculation): 1
count at 28 days ([2]; 28 days after inoculation): 1
count at 2 days ([3]; 2 days after inoculation): 240.000
count at 7 days ([3]; 7 days after inoculation): 220.000
count at 14 days ([3]; 14 days after inoculation): 240.000
count at 28 days ([3]; 28 days after inoculation): 38.000
count at 2 days ([4]; SA, 2 days after inoculation, use concentration in label): 45.000
count at 7 days [4, 21]: 1
count at 14 days [4, 22]: 1
count at 28 days [4, 23]: 1
count at 2 days ([5]; 2 days after inoculation): 710.000
count at 7 days ([5]; 7 days after inoculation): 440.000
count at 14 days ([5]; 14 days after inoculation): 390.000
count at 28 days ([5]; 28 days after inoculation): 120.000
